The text below walks through data of ChEMBL document CHEMBL4422618, “Translational impact of novel widely pharmacological characterized mofezolac-derived COX-1 inhibitors combined with bortezomib on human multiple myeloma cell lines viability” (Eur J Med Chem, 2019).

Active and inactive are the calls of the source. The rule behind the calls is not given here.

Data set [1] deals with T1, Prostaglandin G/H synthase 2 (Homo sapiens, UniProt P35354).
T1 sequence (P35354 whole entry): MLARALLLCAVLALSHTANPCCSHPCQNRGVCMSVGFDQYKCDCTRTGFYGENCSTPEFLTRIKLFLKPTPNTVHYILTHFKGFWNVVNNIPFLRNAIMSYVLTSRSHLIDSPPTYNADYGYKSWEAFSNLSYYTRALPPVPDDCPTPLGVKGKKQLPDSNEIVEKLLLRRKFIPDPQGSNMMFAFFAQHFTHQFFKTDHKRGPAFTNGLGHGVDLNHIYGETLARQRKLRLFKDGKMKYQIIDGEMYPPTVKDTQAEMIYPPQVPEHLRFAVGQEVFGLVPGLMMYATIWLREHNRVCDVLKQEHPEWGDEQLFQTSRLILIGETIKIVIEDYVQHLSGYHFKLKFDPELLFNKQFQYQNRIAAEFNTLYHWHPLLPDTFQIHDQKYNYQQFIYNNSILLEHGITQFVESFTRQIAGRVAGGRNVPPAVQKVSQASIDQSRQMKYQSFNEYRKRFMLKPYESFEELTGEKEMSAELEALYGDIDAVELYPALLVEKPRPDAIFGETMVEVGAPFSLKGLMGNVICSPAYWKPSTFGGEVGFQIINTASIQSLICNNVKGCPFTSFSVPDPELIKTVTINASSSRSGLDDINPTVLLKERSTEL
In words: Inhibition of human COX2 using arachidonic acid as substrate by colorimetric assay.

Data set [2] addresses T2, Prostaglandin G/H synthase 1 (Ovis aries, UniProt P05979).
T2 sequence (P05979 whole entry): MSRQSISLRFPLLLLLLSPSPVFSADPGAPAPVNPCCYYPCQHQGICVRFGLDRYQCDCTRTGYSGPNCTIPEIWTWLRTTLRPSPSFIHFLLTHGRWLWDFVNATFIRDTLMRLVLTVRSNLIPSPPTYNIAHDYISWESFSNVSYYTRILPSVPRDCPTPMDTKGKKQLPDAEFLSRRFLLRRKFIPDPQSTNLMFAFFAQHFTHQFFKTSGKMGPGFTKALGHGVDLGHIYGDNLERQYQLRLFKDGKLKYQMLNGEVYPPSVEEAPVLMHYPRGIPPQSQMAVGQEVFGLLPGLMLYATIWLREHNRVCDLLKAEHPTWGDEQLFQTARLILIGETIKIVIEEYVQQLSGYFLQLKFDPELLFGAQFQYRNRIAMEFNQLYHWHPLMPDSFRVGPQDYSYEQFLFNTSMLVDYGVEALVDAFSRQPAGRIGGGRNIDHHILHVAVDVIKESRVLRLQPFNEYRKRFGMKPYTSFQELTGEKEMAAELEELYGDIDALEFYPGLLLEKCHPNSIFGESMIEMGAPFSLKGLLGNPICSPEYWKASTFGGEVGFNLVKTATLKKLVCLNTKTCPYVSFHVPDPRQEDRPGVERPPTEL
In words: Inhibition of ovine COX1 using arachidonic acid as substrate by colorimetric assay.

Data set [3] has as its target T3, Prostaglandin G/H synthase 1 (Ovis aries) (UniProt P05979).
T3 sequence (whole entry): T2 sequence (P05979 whole entry)
In words: Inhibition of ovine COX1 at 50 uM using arachidonic acid as substrate by colorimetric assay relative to control.

The test system of data set [4] is Plasma. Kind of data set: Anticoagulant activity in human platelet poor plasma assessed as activated partial thromboplastin time at 100 uM incubated for 15 mins at room temperature and subsequent incubation for 2 mins at 37 degreeC followed by cephalin addition and measured after 2 mins for every secs in presence of CaCl2. In kind it is functional.
In data set [5] the test system is Plasma. Kind of data set: Anticoagulant activity in human platelet poor plasma assessed as prothrombin time at 100 uM incubated for 15 mins at room temperature and subsequent incubation for 2 mins at 37 degreeC followed by PBS addition and measured after 3 mins for every secs in presence of calcium thromboplastin. In kind it is functional.
In data set [6] the target is T3, Prostaglandin G/H synthase 1 (Ovis aries). Kind of data set: Inhibition of ovine COX1 at 10 uM using arachidonic acid as substrate by colorimetric assay relative to control.
In data set [7] the target is T4, Prostaglandin G/H synthase 2 (Homo sapiens) (UniProt P35354).
T4 sequence (whole entry): T1 sequence (P35354 whole entry)
In words: Inhibition of human COX2 at 50 uM using arachidonic acid as substrate by colorimetric assay relative to control.

Data set [8] in a line: Selectivity index, ratio of IC50 for human COX2 to IC50 for ovine COX1.
The subject of data set [9] is RPMI-8226. In words: Cytotoxicity against human RPMI8226 cells assessed as reduction in cell viability at 2 nM after 48 hrs by CCK8 assay relative to control. Type of data set: functional, cell-based. (In general: Formazan colour is commonly taken as a measure of viable cells.)
Data set [10] deals with NCI-H929. Kind of data set: Cell cycle arrest in human NCI-H929 cells assessed as accumulation at S phase at 2 nM after 48 hrs by propidium iodide/RNase staining based flow cytometric method relative to control. Type of data set: functional. For orientation: Flow cytometry measures light scatter and fluorescence of single cells or particles in a stream.
Data set [11] has as its system RPMI-8226. In words: Induction of apoptosis in human RPMI8226 cells assessed as viable cells at 3 nM after 48 hrs by Annexin-V/propidium iodide staining based flow cytometric method (reference value: 98.7%). Type of data set: functional. As to conditions: RPMI-8226, 48 h, read-out: Activity.
The test system of data set [12] is RPMI-8226. In words: Induction of apoptosis in human RPMI8226 cells assessed as early apoptotic cells at 3 nM after 48 hrs by Annexin-V/propidium iodide staining based flow cytometric method (reference value: 1.05%). In kind it is functional.
The subject of data set [13] is RPMI-8226. In words: Cytotoxicity against human RPMI8226 cells assessed as reduction in cell viability at 3 nM after 48 hrs by CCK8 assay relative to control. In kind it is functional.
Data set [14] deals with RPMI-8226. Kind of data set: Induction of apoptosis in human RPMI8226 cells assessed as late apoptotic cells at 3 nM after 48 hrs by Annexin-V/propidium iodide staining based flow cytometric method (reference value: 0.21%). In kind it is functional.
In data set [15] the test system is NCI-H929. Kind of data set: Induction of apoptosis in human NCI-H929 cells assessed as early apoptotic cells at 2 nM after 48 hrs by Annexin-V/propidium iodide staining based flow cytometric method (reference value: 17.1%). In kind it is functional.
Data set [16] deals with NCI-H929. Kind of data set: Induction of apoptosis in human NCI-H929 cells assessed as necrotic cells at 2 nM after 48 hrs by Annexin-V/propidium iodide staining based flow cytometric method (reference value: 0.0034%). In kind it is functional.
For data set [17], the system named is RPMI-8226. In words: Cell cycle arrest in human RPMI8226 cells assessed as accumulation at G0/G1 phase at 3 nM after 48 hrs by propidium iodide/RNase staining based flow cytometric method. Type of data set: functional.
Data set [18] deals with NCI-H929. In words: Induction of apoptosis in human NCI-H929 cells assessed as viable cells at 2 nM after 48 hrs by Annexin-V/propidium iodide staining based flow cytometric method (reference value: 82.6%). As to conditions: NCI-H929, 48 h, read-out: Activity. Type of data set: functional.
Data set [19] has as its system NCI-H929. In words: Cell cycle arrest in human NCI-H929 cells assessed as accumulation at G0/G1 phase at 2 nM after 48 hrs by propidium iodide/RNase staining based flow cytometric method relative to control. Type of data set: functional.
Data set [20] has as its system RPMI-8226. In words: Cell cycle arrest in human RPMI8226 cells assessed as accumulation at S phase at 3 nM after 48 hrs by propidium iodide/RNase staining based flow cytometric method. In kind it is functional.
Data set [21] concerns RPMI-8226. Kind of data set: Cytotoxicity against human RPMI8226 cells assessed as reduction in cell viability at 2 nM after 48 hrs by CCK8 assay. Type of data set: functional, cell-based.
For data set [22], the system named is NCI-H929. Kind of data set: Induction of apoptosis in human NCI-H929 cells assessed as late apoptotic cells at 2 nM after 48 hrs by Annexin-V/propidium iodide staining based flow cytometric method (reference value: 0.23%). Type of data set: functional.
For data set [23], the system named is RPMI-8226. In words: Induction of apoptosis in human RPMI8226 cells assessed as necrotic cells at 3 nM after 48 hrs by Annexin-V/propidium iodide staining based flow cytometric method (reference value: 0.090%). In kind it is functional.
Data set [24] in a line: Genotoxicity in Escherichia coli PQ37 at 500 uM after overnight incubation by SOS chromotest. Type of data set: toxicity.
Data set [25] in a line: Genotoxicity in Escherichia coli PQ35 at 500 uM after overnight incubation by SOS chromotest. Type of data set: toxicity.

The IC50 is the midpoint of a concentration-inhibition curve. A high value points to weaker potency. One may read the inhibition as the change of the read-out against control, counted positive when it falls. Low readings indicate a response near the control, high ones a response far below the control. For the compound `COc1ccc(-c2c(-c3ccc(NC(C)=O)cc3)noc2CC(=O)O)cc1`, the IC50 in [1] is over 50 µM; in data set [2] it was 12 µM. Moreover, the inhibition in data set [3] came out at 79%.

Consider `O=C(NC[C@H]1CN(c2ccc(N3CCOCC3=O)cc2)C(=O)O1)c1ccc(Cl)s1` [RIVAROXABAN], for which the APTT with Plasma [4] came out at 300 s. Also, the PT in the data set on Plasma [5] is 300 s.

`COc1ccc(-c2c(-c3ccc([N+](=O)[O-])cc3)noc2C)cc1`: in data set [1], the IC50 is over 50 µM. The inhibition in data set [6] is 36%.

`COc1ccc(-c2c(-c3ccc(N)cc3)noc2C)cc1`: the IC50 is over 50 µM in data set [1] and 23 µM in data set [2]. In addition, the inhibition in [3] is 53%.

As for `COc1ccc(-c2c(-c3ccc(N)cc3)noc2CC(=O)O)cc1`, the IC50 in data set [1] and in data set [2] was over 50 µM throughout. The inhibition in data set [7] stood at 42%; in [3], 33%.

Consider `COc1ccc(-c2noc(N)c2-c2ccc(OC)cc2)cc1`, for which the IC50 was over 50 µM in [1] and 8.3 µM in [2]. The same compound gave an inhibition in data set [3] of 89%.

Consider `COc1ccc(-c2noc(CBr)c2-c2ccc(OC)cc2)cc1`, for which the IC50 in [1] was 0.18 µM; in data set [2] it was 0.1 µM. Moreover, the results for the inhibition in data set [7] and in data set [3] were 63% and 93%, respectively.

In the case of `COc1ccc(-c2noc(C)c2-c2ccc(OC)cc2)cc1`, it took 0.35 µM to reach half-maximal inhibition in [1] (IC50). Besides, the Ratio IC50 in data set [8] is 4.6.

`CS(=O)(=O)c1ccc(-c2noc(N)c2-c2ccc(F)cc2)cc1`: the IC50 in data set [1] and in data set [2] was over 50 µM each time.

As to `CC(C)C[C@H](NC(=O)[C@H](Cc1ccccc1)NC(=O)c1cnccn1)B(O)O` [BORTEZOMIB], the outcome in the data set with RPMI-8226 [9] and in the data set with RPMI-8226 [21] was Active. In addition, the Activity in the data set with NCI-H929 [10] is recorded as 10%; in the data set on RPMI-8226 [12], 8.81%; in the data set with RPMI-8226 [13], 53%; with RPMI-8226 [14], 0.11%; in the data set on NCI-H929 [15], 48.7%; in the data set on NCI-H929 [16], 0.033%. The Activity worked out at 10% in the data set on NCI-H929 [19], 0.14% in the data set with NCI-H929 [22] and 0.0918% in the data set on RPMI-8226 [23]. In the data set on RPMI-8226 [11], the viability at 0.003 µM worked out at 91.1%. For the same compound, the result in the data set with RPMI-8226 [17] and in the data set on RPMI-8226 [20] was inactive. Further, in the data set with NCI-H929 [18], the viability at 0.002 µM was determined as 51.1%.

`Cc1onc(-c2ccc(S(C)(=O)=O)cc2)c1-c1ccc(F)cc1`: the IC50 in data set [1] is 0.07 µM; in data set [2], over 50 µM. Besides, the inhibition in data set [7] turned out to be 52%; in data set [3] it was 24%.

For `Nc1onc(-c2ccc([N+](=O)[O-])cc2)c1-c1ccc(F)cc1`, the IC50 was over 50 µM in [1] and 12 µM in data set [2]. This compound registered an inhibition in data set [3] of 71%.

For the compound `COc1ccc(-c2noc(CF)c2-c2ccc(OC)cc2)cc1`, the values for the IC50 in data set [1] and in data set [2] were 0.3 µM and 0.35 µM, respectively. For the same compound, the inhibition in [7] is 85%; in data set [3] it was 100%.

In the case of `COc1ccc(-c2c(-c3ccc(F)cc3)noc2C)cc1`, the IC50 in data set [1] was over 50 µM; in data set [2], 3 µM. The compound further yielded an inhibition in [3] of 94%.

Take `COc1ccc(-c2c(-c3ccc(F)cc3)noc2N)cc1`: the IC50 in data set [1] was over 50 µM; in [2], 13 µM. Also, the inhibition in [3] was determined as 83%.

As for `O=[N+]([O-])c1cc[n+]([O-])c2ccccc12` [4-NITROQUINOLINE-1-OXIDE], the Activity entry in data set [24] and in data set [25] was “Toxic” throughout.

As for `COc1ccc(-c2noc(CCO)c2-c2ccc(OC)cc2)cc1`, the IC50 was found to be 0.19 µM in [1] and 0.12 µM in data set [2]. In addition, the values for the inhibition in data set [7] and in data set [3] were 82% and 100%, respectively. In addition, the Ratio IC50 in data set [8] worked out at 1.6.

On to `Cc1onc(-c2ccc([N+](=O)[O-])cc2)c1-c1ccc(F)cc1`, for which the IC50 in [1] and in [2] was over 50 µM throughout.

Take `COc1ccc(-c2c(-c3ccc(F)cc3)noc2CC(=O)O)cc1`: the IC50 in data set [1] was over 50 µM; in [2] it was 7.5 µM. Moreover, the inhibition in [3] worked out at 92%.
